Patent US20080242646A1, “Split dose corticosteroid therapy” (priority 2007, published 2008)
Read-outs that look alike come from different tables or passages of the source.

Key:
[1] = cited from earlier work; for Equivalent dose, Equal to 1 mg prednisolone / Equivalent dose, Equal to 5 mg prednisolone: BNF guidelines
[2] = test system: CRP; assay: CRP measurements in the 14 week blinded randomized study; assay type: in vivo, human; details: ITT (LOCF)
Description: The study population had active rheumatoid arthritis.
The powered study ended after these first 10 weeks. […] A schematic of the study design is shown below.

[3] = test system: subjects with active rheumatoid arthritis; details: ITT, missing = non-responder, subjects (% of arm)
Description: ACR-20/50/70 refers to a composite improvement of 20%, 50% or 70% in swollen joint count, tender joint count, and 3 or more of the following 5 measures: patient's own global assessment of RA disease activity; physician's global assessment of disease activity; patient's own assessment of pain due to RA; acute-phase reactant (CRP); and patient's self-addressed disability (Health Assessment Questionnaire).
(§1) We conducted a 14 week blinded, randomized study including a split dose corticosteroid therapy or placebo, with regular CRP and inflammatory cytokine measurements. The study population had active rheumatoid arthritis. The subject must otherwise have been in good general health.
(§2) Screening Visit • Day 1 (Baseline Visit)—Start of Run-In Period • Day 14 (±2 days)—End of Run-In Period/Start of Treatment Period • Day 42 (±2 days) • Day 70 (±2 days)—End of Treatment Period/Start of Withdrawal Period • Day 98 (±2 days)—End of Study
(§3) All eligible subjects received DMARD therapy in a stable dose. Subjects were evaluated for study eligibility at the Screening visit, which was conducted within 14 days before the first dose of study drug. The subject provided written informed consent to participate in the study before any Screening laboratory samples were collected or evaluations performed.
(§4) All subjects were given 3 mg prednisolone alone for 2 weeks (Run-In Period). Subjects were then randomized into treatment groups to additionally receive 10 mg paroxetine, 20 mg paroxetine or placebo tablets for 8 weeks (Combination Treatment Period). The powered study ended after these first 10 weeks. All subjects continued in an un-powered part of the study for an additional 4 weeks (Withdrawal Period). In this portion of the study, half of the subjects on 10 mg or 20 mg paroxetine plus 3 mg prednisolone stopped taking paroxetine, and instead took 3 mg prednisolone plus placebo, while the other half stopped taking prednisolone, and instead took either dose of paroxetine plus placebo. Similarly, half of the subjects on prednisolone plus placebo stopped the prednisolone, and instead took two placebo tablets, while the other half continued the regimen of 3 mg prednisolone plus placebo.

[4] = test system: subjects with active rheumatoid arthritis; details: ITT (LOCF)
Description: A visual analog scale (VAS) provides a measure of a one-dimensional quantity. A VAS generally utilizes a representation of distance, such as a picture of a line with hash marks drawn at regular distance intervals, e.g., ten 1-cm intervals. […] This procedure provides a simple and rapid approach to obtaining quantitative information about how the patient is experiencing pain. VAS scales can also be used, e.g., to measure fatigue.
as §1, §2, §3, §4

[5] = Day 14 (end of run-in, 3 mg prednisolone alone in all arms)

Compound: CC(=O)OCC(=O)[C@@]1(O)CC[C@H]2[C@@H]3CCC4=CC(=O)CC[C@]4(C)[C@H]3C(=O)C[C@@]21C [cortisone acetate]
- Equivalent dose, Equal to 1 mg prednisolone [1]: 5 mg
- Equivalent dose, Equal to 5 mg prednisolone [1]: 25 mg

Compound: C[C@]12C=CC(=O)C=C1CC[C@@H]1[C@@H]2[C@@H](O)C[C@@]2(C)[C@H]1CC[C@]2(O)C(=O)CO [3 mg Prednisolone + Placebo, prednisolone]
- CRP % Change from baseline, Max [2, 5]: 1700.0%
- CRP % Change from baseline, Mean (Std Dev) [2, 5]: 7.11 (215.970) %
- CRP % Change from baseline, Median [2, 5]: −32.26%
- CRP % Change from baseline, Min [2, 5]: −95.8%
- CRP Change from baseline, Max [2, 5]: 77.9
- CRP Change from baseline, Mean (Std Dev) [2, 5]: −7.40 (20.149)
- CRP Change from baseline, Median [2, 5]: −1.70
- CRP Change from baseline, Min [2, 5]: −83.2
- CRP Value, Max [2, 5]: 107.3
- CRP Value, Mean (Std Dev) [2, 5]: 11.42 (17.413)
- CRP Value, Median [2, 5]: 6.20
- CRP Value, Min [2, 5]: 0.3
- CRP % Change from baseline, Max ([2]; Day 42): 187.3%
- CRP % Change from baseline, Mean (Std Dev) ([2]; Day 42): −17.67 (58.589) %
- CRP % Change from baseline, Median ([2]; Day 42): −23.53%
- CRP % Change from baseline, Min ([2]; Day 42): −92.5%
- CRP Change from baseline, Max ([2]; Day 42): 21.5
- CRP Change from baseline, Mean (Std Dev) ([2]; Day 42): −8.61 (18.009)
- CRP Change from baseline, Median ([2]; Day 42): −1.00
- CRP Change from baseline, Min ([2]; Day 42): −81.4
- CRP Value, Max ([2]; Day 42): 70.6
- CRP Value, Mean (Std Dev) ([2]; Day 42): 10.22 (12.443)
- CRP Value, Median ([2]; Day 42): 5.40
- CRP Value, Min ([2]; Day 42): 0.3
- CRP % Change from baseline, Max ([2]; Day 70): 187.3%
- CRP % Change from baseline, Mean (Std Dev) ([2]; Day 70): −13.66 (64.905) %
- CRP % Change from baseline, Median ([2]; Day 70): −29.27%
- CRP % Change from baseline, Min ([2]; Day 70): −92.8%
- CRP Change from baseline, Max ([2]; Day 70): 15.5
- CRP Change from baseline, Mean (Std Dev) ([2]; Day 70): −8.95 (18.996)
- CRP Change from baseline, Median ([2]; Day 70): −1.20
- CRP Change from baseline, Min ([2]; Day 70): −87.7
- CRP Value, Max ([2]; Day 70): 64.6
- CRP Value, Mean (Std Dev) ([2]; Day 70): 9.88 (11.956)
- CRP Value, Median ([2]; Day 70): 5.70
- CRP Value, Min ([2]; Day 70): 0.2
- ACR20 response from baseline: No [3, 5]: 53 (77)
- ACR20 response from baseline: Yes [3, 5]: 16 (23)
- ACR50 response from baseline: No [3, 5]: 64 (93)
- ACR50 response from baseline: Yes [3, 5]: 5 (7)
- ACR70 response from baseline: No [3, 5]: 66 (96)
- ACR70 response from baseline: Yes [3, 5]: 3 (4)
- ACR20 response from baseline: No ([3]; Day 42): 44 (64)
- ACR20 response from baseline: Yes ([3]; Day 42): 25 (36)
- ACR50 response from baseline: No ([3]; Day 42): 60 (87)
- ACR50 response from baseline: Yes ([3]; Day 42): 9 (13)
- ACR70 response from baseline: No ([3]; Day 42): 67 (97)
- ACR70 response from baseline: Yes ([3]; Day 42): 2 (3)
- ACR20 response from baseline: No ([3]; Day 70): 39 (57)
- ACR20 response from baseline: Yes ([3]; Day 70): 30 (43)
- ACR50 response from baseline: No ([3]; Day 70): 55 (80)
- ACR50 response from baseline: Yes ([3]; Day 70): 14 (20)
- ACR70 response from baseline: No ([3]; Day 70): 65 (94)
- ACR70 response from baseline: Yes ([3]; Day 70): 4 (6)
- Patient Pain Assessment (VAS) score % Change from baseline, Max [4, 5]: 106.7%
- Patient Pain Assessment (VAS) score % Change from baseline, Mean (Std Dev) [4, 5]: −13.65 (38.137) %
- Patient Pain Assessment (VAS) score % Change from baseline, Median [4, 5]: −11.11%
- Patient Pain Assessment (VAS) score % Change from baseline, Min [4, 5]: −94.7%
- Patient Pain Assessment (VAS) score Change from baseline, Max [4, 5]: 35.0
- Patient Pain Assessment (VAS) score Change from baseline, Mean (Std Dev) [4, 5]: −7.73 (19.337)
- Patient Pain Assessment (VAS) score Change from baseline, Median [4, 5]: −5.00
- Patient Pain Assessment (VAS) score Change from baseline, Min [4, 5]: −81.0
- Patient Pain Assessment (VAS) score Value, Max [4, 5]: 97.0
- Patient Pain Assessment (VAS) score Value, Mean (Std Dev) [4, 5]: 45.58 (25.283)
- Patient Pain Assessment (VAS) score Value, Median [4, 5]: 47.00
- Patient Pain Assessment (VAS) score Value, Min [4, 5]: 2.0
- Patient Pain Assessment (VAS) score % Change from baseline, Max ([4]; Day 42): 186.7%
- Patient Pain Assessment (VAS) score % Change from baseline, Mean (Std Dev) ([4]; Day 42): −19.23 (47.955) %
- Patient Pain Assessment (VAS) score % Change from baseline, Median ([4]; Day 42): −23.44%
- Patient Pain Assessment (VAS) score % Change from baseline, Min ([4]; Day 42): −93.5%
- Patient Pain Assessment (VAS) score Change from baseline, Max ([4]; Day 42): 56.0
- Patient Pain Assessment (VAS) score Change from baseline, Mean (Std Dev) ([4]; Day 42): −10.57 (21.630)
- Patient Pain Assessment (VAS) score Change from baseline, Median ([4]; Day 42): −9.00
- Patient Pain Assessment (VAS) score Change from baseline, Min ([4]; Day 42): −64.0
- Patient Pain Assessment (VAS) score Value, Max ([4]; Day 42): 97.0
- Patient Pain Assessment (VAS) score Value, Mean (Std Dev) ([4]; Day 42): 42.74 (26.143)
- Patient Pain Assessment (VAS) score Value, Median ([4]; Day 42): 37.00
- Patient Pain Assessment (VAS) score Value, Min ([4]; Day 42): 2.0
- Patient Pain Assessment (VAS) score % Change from baseline, Max ([4]; Day 70): 233.3%
- Patient Pain Assessment (VAS) score % Change from baseline, Mean (Std Dev) ([4]; Day 70): −17.84 (57.121) %
- Patient Pain Assessment (VAS) score % Change from baseline, Median ([4]; Day 70): −25.64%
- Patient Pain Assessment (VAS) score % Change from baseline, Min ([4]; Day 70): −90.5%
- Patient Pain Assessment (VAS) score Change from baseline, Max ([4]; Day 70): 49.0
- Patient Pain Assessment (VAS) score Change from baseline, Mean (Std Dev) ([4]; Day 70): −12.28 (23.864)
- Patient Pain Assessment (VAS) score Change from baseline, Median ([4]; Day 70): −10.00
- Patient Pain Assessment (VAS) score Change from baseline, Min ([4]; Day 70): −69.0
- Patient Pain Assessment (VAS) score Value, Max ([4]; Day 70): 97.0
- Patient Pain Assessment (VAS) score Value, Mean (Std Dev) ([4]; Day 70): 41.04 (25.466)
- Patient Pain Assessment (VAS) score Value, Median ([4]; Day 70): 39.00
- Patient Pain Assessment (VAS) score Value, Min ([4]; Day 70): 2.0

Compound: methyl prednisone
- Equivalent dose, Equal to 1 mg prednisolone [1]: 0.8 mg
- Equivalent dose, Equal to 5 mg prednisolone [1]: 4 mg

Compound: C[C@]12C=CC(=O)C=C1CC[C@H]1[C@@H]3C[C@@H](O)[C@](O)(C(=O)CO)[C@@]3(C)C[C@H](O)[C@@]12F [triamcinolone]
- Equivalent dose, Equal to 1 mg prednisolone [1]: 0.8 mg
- Equivalent dose, Equal to 5 mg prednisolone [1]: 4 mg
- Broadly similar dose from clinical dosing equivalence ([1]; nasal administration, BNF 37 Mar. 1999): 110 µg

Compound: C[C@]12CCC(=O)C=C1CC[C@@H]1[C@@H]2[C@@H](O)C[C@@]2(C)[C@H]1CC[C@]2(O)C(=O)CO [hydrocortisone]
- Equivalent dose, Equal to 1 mg prednisolone [1]: 4 mg
- Equivalent dose, Equal to 5 mg prednisolone [1]: 20 mg

Compound: CC(=O)OCC(=O)[C@@]12N=C(C)O[C@@H]1C[C@H]1[C@@H]3CCC4=CC(=O)C=C[C@]4(C)[C@H]3[C@@H](O)C[C@@]12C [deflazacort]
- Equivalent dose, Equal to 1 mg prednisolone [1]: 1.2 mg
- Equivalent dose, Equal to 5 mg prednisolone [1]: 6 mg
